For one test, the system named is GP2D (KRAS G12D) cells. The test can be described thus: 2D Cell Viability Assay (CellTiter-Glo). The test is classed as cell-based. The note with it: 4 days, CellTiter-Glo luminescence. As for the experimental part: Example B. 2D Cell Viability Assay
Compounds were tested in a 384-well format for their ability to inhibit the viability of GP2D (KRAS G12D) cells in 2D assays. Compounds were serially diluted (1:3) in DMSO. The LabCyte ECHO Acoustic dispenser system was used to pre-spot assay plates with 200 nL of test molecule per well. 1000 cells/well (40 μL volume per well) in RPMI medium with 10% FBS, and Penicillin-Streptomycin-Glutamine were plated in pre-spotted 384-well plates (Greiner, Catalog #781076) on the BioTEK EL406 liquid dispenser with a 5 μL dispensing cassette (BioTek 7170011). The plates were incubated at 37° C., 5% CO2 for 4 days before addition of CellTiter-Glo (CTG) reagent and measurement of luminescence signal. EC50 values were defined as the compound concentration that causes a 50% decrease in luminescence signal and were calculated using a sigmoidal dose-response model to generate curve fits.
In general terms: Cellular ATP, detected with luciferase, serves as a proxy for viable cell number.

In another test the target is GDP-loaded KRAS G12D (Homo sapiens, UniProt P01116, G12D). Put plainly: KRAS G12D (GDP) Biochemical Assay (TR-FRET probe displacement). The class given is binding. The note with it: 0.5 nM enzyme, 2 hours at room temperature. As for the experimental part:
Example A. KRAS G12D (GDP) Biochemical Assay
Compounds were tested for binding to GDP-loaded KRAS G12D in a 384-well assay format using a TR-FRET probe displacement assay in buffer consisting of 50 mM Hepes (pH 7.4), 150 mM NaCl, 5 mM MgCl2 and 0.005% Tween-20. […] Compounds were serially diluted (1:3) in DMSO. The LabCyte ECHO Acoustic dispenser system was used to pre-spot the assay plates (384-well Non-Binding Surface plates, Corning, Catalog #3824) with 50 nL of compound. The compounds were pre-incubated with 5 μL of 2× final enzyme concentration for 30 minutes before adding 5 μL of 2× final concentration of Eu-streptavidin and TR-FRET probe (10 μL final reaction volume). The plates were incubated at room temperature for 2 hours before measuring TR-FRET ratio on the Envision plate reader. IC50 values were defined as the compound concentration that causes a 50% decrease in TR-FRET ratio and were calculated using a sigmoidal dose-response model to generate curve fits.
In general terms: Time-resolved FRET reads energy transfer from a long-lived donor to a nearby acceptor.

Structures are written as SMILES. Bounds are passed on as bounds.

Sequence of GDP-loaded KRAS G12D (P01116 1-188 isoform P01116-2 G12D): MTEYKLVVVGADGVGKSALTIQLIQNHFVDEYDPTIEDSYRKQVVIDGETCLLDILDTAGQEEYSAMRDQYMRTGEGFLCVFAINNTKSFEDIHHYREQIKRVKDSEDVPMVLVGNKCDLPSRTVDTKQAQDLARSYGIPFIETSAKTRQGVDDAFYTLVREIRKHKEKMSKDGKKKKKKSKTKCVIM

For orientation: EC50 means the midpoint of the concentration-response curve. The low end stands for a more potent agent, the high end for a less potent agent. One may read the IC50 as the midpoint of a concentration-inhibition curve. In the test on GP2D (KRAS G12D) cells (GP2d, 96 h), `C#Cc1c(F)ccc2cc(N)nc(-c3c(F)c4c5c(nc(OC[C@@]67CCCN6C[C@H](F)C7)nc5c3F)N3C[C@H]5CC[C@H](N5)[C@H]3CC4)c12` (atropisomer, axis not shown; (aR)) [Example 62, 1-((1S,4R,11S,14aR)-10,12-difluoro-8-(((2R,7aS)-2-fluorotetrahydro-1H-pyrrolizin-7a(5H)-yl)methoxy)-1,2,3,4,5,13,14,14a-octahydro-1,4-epiminoazepino[1′,2′:1,7]azepino[2,3,4-de]quinazolin-11-yl)-8-ethynyl-7-fluoroisoquinolin-3-amine] registered an EC50 of 2.5 nM. The IC50 on GDP-loaded KRAS G12D was 0.03 nM.

With `C[C@H]1Cc2c(F)c(-c3ccc(F)c4sc(N)c(C#N)c34)c(F)c3nc(OC[C@@]45CCCN4C[C@H](F)C5)nc(c23)N2C[C@H]3CC[C@H](N3)[C@H]12` (atropisomer, axis not shown; (aS)) [Example 34, (S)-2-amino-4-((1S,4R,14S,14aS)-10,12-difluoro-8-(((2R,7aS)-2-fluorotetrahydro-1H-pyrrolizin-7a(5H)-yl)methoxy)-14-methyl-1,2,3,4,5,13,14,14a-octahydro-1,4-epiminoazepino[1′,2′:1,7]azepino[2,3,4-de]quinazolin-11-yl)-7-fluorobenzo[b]thiophene-3-carbonitrile], the midpoint of the response with GP2D (KRAS G12D) cells (GP2d, 96 h), the EC50, lay at 0.5 nM. Besides, the concentration for half-maximal inhibition (IC50) at GDP-loaded KRAS G12D worked out at 0.08 nM.

The compound `C#Cc1c(F)ccc2cc(N)nc(-c3c(F)c4c5c(nc(OC[C@@]67CCCN6C[C@H](F)C7)nc5c3F)N3C[C@H]5CC[C@H](N5)[C@@H]3[C@@H](C)C4)c12` (atropisomer, axis not shown; (aS)) [Example 45, 1-((1S,4R,11S,14S,14aS)-10,12-difluoro-8-(((2R,7aS)-2-fluorotetrahydro-1H-pyrrolizin-7a(5H)-yl)methoxy)-14-methyl-1,2,3,4,5,13,14,14a-octahydro-1,4-epiminoazepino[1′,2′:1,7]azepino[2,3,4-de]quinazolin-11-yl)-8-ethynyl-7-fluoroisoquinolin-3-amine] came in with a concentration for a half-maximal effect (EC50) in the test on GP2D (KRAS G12D) cells (GP2d, 96 h) of 2.2 nM. Besides, at GDP-loaded KRAS G12D, the IC50 is 0.04 nM.

For the compound `C#Cc1c(F)ccc2cc(N)nc(-c3c(Cl)c4c5c(nc(OC[C@@]67CCCN6C[C@H](F)C7)nc5c3F)N3C[C@H]5CC[C@H](N5)[C@@H]3[C@@H](C)C4)c12` (atropisomer, axis not shown; (aS)) [Example 48, 1-((1S,4R,11R,14S,14aS)-12-chloro-10-fluoro-8-(((2R,7aS)-2-fluorotetrahydro-1H-pyrrolizin-7a(5H)-yl)methoxy)-14-methyl-1,2,3,4,5,13,14,14a-octahydro-1,4-epiminoazepino[1′,2′:1,7]azepino[2,3,4-de]quinazolin-11-yl)-8-ethynyl-7-fluoroisoquinolin-3-amine], the EC50 in the test with GP2D (KRAS G12D) cells (GP2d, 96 h) came to 8.1 nM.

The compound `C[C@H]1Cc2c(Cl)c(-c3ccc(F)c4sc(N)c(C#N)c34)c(F)c3nc(OC[C@@]45CCCN4C[C@H](F)C5)nc(c23)N2C[C@H]3CC[C@H](N3)[C@H]12` (atropisomer, axis not shown; (aS)) [Example 52, 2-amino-4-((1S,4R,11R,14S,14aS)-12-chloro-10-fluoro-8-(((2R,7aS)-2-fluorotetrahydro-1H-pyrrolizin-7a(5H)-yl)methoxy)-14-methyl-1,2,3,4,5,13,14,14a-octahydro-1,4-epiminoazepino[1′,2′:1,7]azepino[2,3,4-de]quinazolin-11-yl)-7-fluorobenzo[b]thiophene-3-carbonitrile] returned an IC50 on GDP-loaded KRAS G12D of 0.03 nM.

In the test on GP2D (KRAS G12D) cells (GP2d, 96 h), `C[C@H]1Cc2c(Cl)c(-c3ncc(F)c4sc(N)c(C#N)c34)c(F)c3nc(OC[C@@]45CCCN4C[C@H](F)C5)nc(c23)N2C[C@H]3CC[C@H](N3)[C@H]12` (atropisomer, axis not shown; (aS)) [Example 56, 2-amino-4-((1S,4R,11S,14S,14aS)-12-chloro-10-fluoro-8-(((2R,7aS)-2-fluorotetrahydro-1H-pyrrolizin-7a(5H)-yl)methoxy)-14-methyl-1,2,3,4,5,13,14,14a-octahydro-1,4-epiminoazepino[1′,2′:1,7]azepino[2,3,4-de]quinazolin-11-yl)-7-fluorothieno[3,2-c]pyridine-3-carbonitrile] had a concentration giving a half-maximal response (EC50) of 2 nM. This compound also gave a concentration for half-maximal inhibition (IC50) at GDP-loaded KRAS G12D of 0.11 nM.

Turning to `C[C@H]1Cc2c(Cl)c(-c3cccc4sc(N)c(C#N)c34)c(F)c3nc(OC[C@@]45CCCN4C[C@H](F)C5)nc(c23)N2C[C@H]3CC[C@H](N3)[C@H]12` (atropisomer, axis not shown; (aS)) [Example 57, 2-amino-4-((1S,4R,11R,14S,14aS)-12-chloro-10-fluoro-8-(((2R,7aS)-2-fluorotetrahydro-1H-pyrrolizin-7a(5H)-yl)methoxy)-14-methyl-1,2,3,4,5,13,14,14a-octahydro-1,4-epiminoazepino[1′,2′:1,7]azepino[2,3,4-de]quinazolin-11-yl)benzo[b]thiophene-3-carbonitrile], in the test with GP2D (KRAS G12D) cells (GP2d, 96 h), a half-maximal response (EC50) required 0.94 nM. The half-inhibitory concentration (IC50) at GDP-loaded KRAS G12D was 0.06 nM.

In turn, `Cc1cc(N)nc(-c2c(Cl)c3c4c(nc(OC[C@@]56CCCN5C[C@H](F)C6)nc4c2F)N2C[C@H]4CC[C@H](N4)[C@H]2CCC3)c1C(F)(F)F` (single isomer, unassigned) [Example 2] returned an EC50 in the test on GP2D (KRAS G12D) cells (GP2d, 96 h) of 65 nM. The concentration for half-maximal inhibition (IC50) on GDP-loaded KRAS G12D amounted to 8.8 nM.

With `Cc1cc(N)nc(-c2c(Cl)c3c4c(nc(OC[C@@]56CCCN5C[C@H](F)C6)nc4c2F)N2C[C@H]4CC[C@H](N4)[C@H]2CCC3)c1C(F)(F)F` (single isomer, unassigned) [Example 3], the concentration giving a half-maximal response (EC50) with GP2D (KRAS G12D) cells is greater than 100 nM. The concentration for half-maximal inhibition (IC50) at GDP-loaded KRAS G12D was 87 nM.

Compound `Cc1cc(N)nc(-c2c(Cl)c3c4c(nc(OC[C@@]56CCCN5C[C@H](F)C6)nc4c2F)N2C[C@H]4CC[C@H](N4)[C@H]2CC3)c1C(F)(F)F` (single isomer, unassigned) [Example 5] came in with an EC50 with GP2D (KRAS G12D) cells of 14 nM. Further, at GDP-loaded KRAS G12D, the half-maximal inhibitory concentration (IC50) came to 1.1 nM.

Turning to `Cc1cc(N)nc(-c2c(Cl)c3c4c(nc(OC[C@@]56CCCN5C[C@H](F)C6)nc4c2F)N2C[C@H]4CC[C@H](N4)[C@H]2CC3)c1C(F)(F)F` (single isomer, unassigned) [Example 6], in the test with GP2D (KRAS G12D) cells, the EC50 came out at 1.2 nM. Besides, on GDP-loaded KRAS G12D, the IC50 is 0.05 nM.

`Cc1cc(N)nc(-c2c(F)c3c4c(nc(OC[C@@]56CCCN5C[C@H](F)C6)nc4c2F)N2C[C@H]4CC[C@H](N4)[C@H]2CC3)c1C(F)(F)F` (single isomer, unassigned) [Example 21]: the EC50 with GP2D (KRAS G12D) cells came to 12 nM. This compound registered a concentration for half-maximal inhibition (IC50) on GDP-loaded KRAS G12D of 2 nM.

For `Cc1cc(N)nc(-c2c(F)c3c4c(nc(OC[C@@]56CCCN5C[C@H](F)C6)nc4c2F)N2C[C@H]4CC[C@H](N4)[C@H]2CC3)c1C(F)(F)F` (single isomer, unassigned) [Example 22], the EC50 in the test on GP2D (KRAS G12D) cells was 1.6 nM. The compound also registered a 50% inhibitory concentration (IC50) at GDP-loaded KRAS G12D of 0.08 nM.

Compound `C[C@H]1Cc2c(F)c(-c3ncc(F)c4sc(N)c(C#N)c34)c(F)c3nc(OC[C@@]45CCCN4C[C@H](F)C5)nc(c23)N2C[C@H]3CC[C@H](N3)[C@H]12` (single isomer, unassigned) [Example 50] returned a 50% effective concentration (EC50) in the test with GP2D (KRAS G12D) cells (GP2d, 96 h) of 2.6 nM. The half-inhibitory concentration (IC50) at GDP-loaded KRAS G12D turned out to be 0.12 nM.

Take `C[C@H]1Cc2c(F)c(-c3ncc(F)c4sc(N)c(C#N)c34)c(F)c3nc(OC[C@@]45CCCN4C[C@H](F)C5)nc(c23)N2C[C@H]3CC[C@H](N3)[C@H]12` (single isomer, unassigned) [Example 51]: the EC50 with GP2D (KRAS G12D) cells turned out to be 3.4 nM. This compound yielded an IC50 on GDP-loaded KRAS G12D of 0.8 nM.
